Laboratory results taken from ChEMBL document CHEMBL1147512, “Development of subtype-selective ligands as antagonists at nicotinic receptors mediating nicotine-evoked dopamine release” (Bioorg Med Chem Lett, 2004).

Legend:
[1] = molecular target: T1, Neuronal acetylcholine receptor subunit alpha-7 (Rattus norvegicus, UniProt Q05941); assay: Inhibition of [3H]-MLA binding to Nicotinic acetylcholine receptor alpha-7 in rat brain.; type: tissue-based
[2] = molecular target: T2, Neuronal acetylcholine receptor; alpha4/beta2 (Rattus norvegicus, UniProt P09483+P12390); assay: Inhibition of [3H]nicotine binding to Nicotinic acetylcholine receptor alpha4-beta2 in rat brain.; type: tissue-based
T2 sequence (P09483 whole entry): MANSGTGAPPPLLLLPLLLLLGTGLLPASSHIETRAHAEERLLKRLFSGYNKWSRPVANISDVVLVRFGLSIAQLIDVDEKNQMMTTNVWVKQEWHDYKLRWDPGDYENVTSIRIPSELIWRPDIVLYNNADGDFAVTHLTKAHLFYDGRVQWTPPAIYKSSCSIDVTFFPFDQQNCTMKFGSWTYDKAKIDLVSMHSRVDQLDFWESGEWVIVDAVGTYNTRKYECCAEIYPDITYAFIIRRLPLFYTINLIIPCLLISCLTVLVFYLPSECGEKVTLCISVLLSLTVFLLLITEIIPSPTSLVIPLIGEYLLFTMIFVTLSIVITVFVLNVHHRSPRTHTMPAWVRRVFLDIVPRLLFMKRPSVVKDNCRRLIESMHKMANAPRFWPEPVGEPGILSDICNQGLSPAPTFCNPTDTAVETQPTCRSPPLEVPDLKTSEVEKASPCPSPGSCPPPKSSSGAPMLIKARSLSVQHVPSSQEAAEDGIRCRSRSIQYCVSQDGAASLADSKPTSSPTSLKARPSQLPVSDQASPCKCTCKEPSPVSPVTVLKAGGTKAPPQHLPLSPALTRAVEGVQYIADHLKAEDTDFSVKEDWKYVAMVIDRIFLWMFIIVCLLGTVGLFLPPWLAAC
T2 sequence (P12390 whole entry): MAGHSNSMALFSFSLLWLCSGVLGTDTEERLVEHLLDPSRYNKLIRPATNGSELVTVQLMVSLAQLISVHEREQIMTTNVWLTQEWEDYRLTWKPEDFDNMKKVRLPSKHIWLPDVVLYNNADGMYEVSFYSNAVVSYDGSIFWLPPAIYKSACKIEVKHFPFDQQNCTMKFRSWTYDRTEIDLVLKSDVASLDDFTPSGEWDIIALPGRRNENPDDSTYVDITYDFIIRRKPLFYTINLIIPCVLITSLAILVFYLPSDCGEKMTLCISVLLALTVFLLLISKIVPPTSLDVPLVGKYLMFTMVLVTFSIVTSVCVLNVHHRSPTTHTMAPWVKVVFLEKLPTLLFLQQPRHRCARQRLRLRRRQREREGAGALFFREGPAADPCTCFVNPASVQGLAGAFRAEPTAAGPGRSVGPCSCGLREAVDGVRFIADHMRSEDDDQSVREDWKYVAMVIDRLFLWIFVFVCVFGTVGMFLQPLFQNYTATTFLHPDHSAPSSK

Rattus norvegicus = species on record: Rattus norvegicus; assay: Inhibitory activity against nAChR mediated nicotine-evoked [3H]DA overflow using rat striatal slices; Not active; type: functional, organism-based
[3] = molecular target: T2, Neuronal acetylcholine receptor; alpha4/beta2; assay: Inhibitory activity against nAChR mediated nicotine-evoked [3H]DA overflow using rat striatal slices; type: functional
[4] = molecular target: T2, Neuronal acetylcholine receptor; alpha4/beta2; assay: Inhibition of [3H]nicotine binding to Nicotinic acetylcholine receptor alpha4-beta2 in rat brain; type: tissue-based
[5] = molecular target: T1, Neuronal acetylcholine receptor subunit alpha-7; assay: Inhibition of [3H]-MLA binding to Nicotinic acetylcholine receptor alpha7 in rat brain; type: tissue-based

T1 sequence (Q05941 whole entry): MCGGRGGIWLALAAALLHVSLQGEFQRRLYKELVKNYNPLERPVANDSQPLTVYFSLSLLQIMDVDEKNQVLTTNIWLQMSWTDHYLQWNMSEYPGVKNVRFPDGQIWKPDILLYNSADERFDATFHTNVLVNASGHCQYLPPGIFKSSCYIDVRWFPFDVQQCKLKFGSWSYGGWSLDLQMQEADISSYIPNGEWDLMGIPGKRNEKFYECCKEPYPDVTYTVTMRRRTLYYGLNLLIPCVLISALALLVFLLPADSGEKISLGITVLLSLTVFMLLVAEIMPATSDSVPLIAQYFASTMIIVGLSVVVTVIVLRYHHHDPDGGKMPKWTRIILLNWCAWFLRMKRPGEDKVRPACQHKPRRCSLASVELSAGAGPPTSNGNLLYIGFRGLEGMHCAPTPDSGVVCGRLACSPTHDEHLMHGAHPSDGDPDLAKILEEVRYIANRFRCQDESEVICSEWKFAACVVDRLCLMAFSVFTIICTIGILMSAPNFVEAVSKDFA

Structure (SMILES) | Ki [1] | Ki [2] | IC50 (Rattus norvegicus) | IC50 [3] [nM] | Ki [4] [nM] | Ki [5] [nM]
CCCCCCCCCCCC[n+]1cccc2c1CC[C@@H]1CCN(C)[C@H]21.[I-] | Not Active | Not Active | Not Active |  |  | 
CCCCCCCC[n+]1ccc2c(c1)[C@H]1[C@@H](CC2)CCN1C.[I-] | Not Active | Not Active |  | 80 |  | 
CCCCCCCCCCCCCCCCCCCC[n+]1ccccc1.[Br-] | Not Active | Not Active |  | 120 |  | 
c1cc[n+](CCCCCCCCCCCCCC[n+]2ccccc2)cc1 |  |  |  | 1000 | 9150 | 33000
CCCCCCCC[n+]1cccc([C@@H]2CCCN2C)c1 |  |  |  |  |  | 12000
CCCCCCCCCCCC[n+]1ccc2c(c1)[C@H]1[C@@H](CC2)CCN1C.[I-] | Not Active | Not Active |  | 220 |  | 
CCCCCCCCCC[n+]1cccc([C@@H]2CCCN2C)c1.[I-] | Not Active |  | Not Active |  | 90 | 
CCCCCCCCC[n+]1cccc2c1CC[C@@H]1CCN(C)[C@H]21.[I-] | Not Active | Not Active |  | 310 |  | 
CCCCCCCCC[n+]1ccc2c(c1)[C@H]1[C@@H](CC2)CCN1C.[I-] | Not Active | Not Active |  | 660 |  | 
CCCCCCCCCCCCCCC[n+]1ccccc1.[Br-] | Not Active |  |  | 320 | 38000 | 
CCCCCCCCCCCC[n+]1ccccc1.[I-] | Not Active | Not Active |  | 260 |  | 
CCCCCCCCCCCC[n+]1cccc([C@@H]2CCCN2C)c1.[I-] | Not Active |  |  | 9 | 140 | 
CCCCCCCCCCC[n+]1cccc2c1CC[C@@H]1CCN(C)[C@H]21.[I-] | Not Active | Not Active |  | 40 |  | 
CCCCCCCCCC[n+]1ccccc1.[I-] | Not Active |  |  | 130 | 17000 | 
CN1CCC[C@H]1c1ccc[n+](CCCCCCCCCCCCCC[n+]2cccc([C@@H]3CCCN3C)c2)c1.[Br-].[Br-] | Not Active |  |  | 170 | 1950 | 
CCCCCCCC[n+]1cccc2c1CC[C@@H]1CCN(C)[C@H]21.[I-] | Not Active | Not Active |  | 40 |  | 
CCCCCCCCCC[n+]1ccc2c(c1)[C@H]1[C@@H](CC2)CCN1C.[I-] | Not Active | Not Active |  | 580 |  | 
CCCCCCCCCCC[n+]1ccc2c(c1)[C@H]1[C@@H](CC2)CCN1C.[I-] | Not Active | Not Active |  | 40 |  | 
CCCCCCCCCC[n+]1cccc2c1CC[C@@H]1CCN(C)[C@H]21.[I-] | Not Active | Not Active |  | 30 |  | 
